Results as given in patent US20240041769A1, “COMPOSITIONS AND METHODS FOR DELIVERY OF ANTICANCER AGENTS WITH IMPROVED THERAPEUTIC INDEX” (NanoTech Pharma Inc., priority 2020, published 2024).

How the values were obtained:
[1] = In-vivo pharmacokinetic study, intravenous; parameters: species or system BALB/c nude mice; conditions: mice, free drug solutions
Procedure: In-vivo pharmacokinetic study of free afatinib and nintedanib combination (data not shown), and AFA/NIN-L (1:5 AFA:NIN molar ratio) were carried out in BALB/c nude mice. The preparation of the PEGylated AFA/NIN-L with TEA-SOS used as the trapping agent was described in the Experimental Method section. The mixture of afatinib and nintedanib free drug cocktail and PEGylated AFA/NIN-L with a molar ratio of 1:5 were administered intravenously via the tail vein into the mice and the plasma concentration of both AFA and NIN was monitored over time. Doses of the all drug formulations were 7.0 mg/kg of afatinib free base (10.3 mg/kg afatinib dimaleate) and 38.9 mg/kg of nintedanib free base (46.8 mg/kg nintedanib […]). After intravenous administration, blood was collected at multiple time points by cardiac puncture (3 mice per time point) and placed into EDTA coated micro containers. The samples were centrifuged to separate plasma, and plasma was transferred to another tube. Then, AFA and NIN plasma levels were quantified with LC-MS. PK parameters were then calculated from measured AFA and NIN plasma levels.

[2] = clinical studies, oral afatinib; cited from earlier work

elimination after IV administration [1] | SMILES | treatment-related grade ≥3 AE: diarrhea [2] | treatment-related grade ≥3 AE: rash/acne [2] | treatment-related grade ≥3 AE: stomatitis/mucositis [2]
rapidly eliminated | CN(C)C/C=C/C(=O)Nc1cc2c(Nc3ccc(F)c(Cl)c3)ncnc2cc1O[C@H]1CCOC1 [AFA, Afatinib] | 5.4-14.4% | 9.7-16.2% | 5.4-8.7%
rapidly eliminated | COC(=O)c1ccc2c(c1)NC(=O)/C2=C(\Nc1ccc(N(C)C(=O)CN2CCN(C)CC2)cc1)c1ccccc1 [NIN, Nintedanib] | – | – | –
